Measurements taken from ChEMBL document CHEMBL1201862, “PubChem BioAssay data set” (2004).
Active and inactive are the calls of the source.

Legend:
[1] = target: T1, Calpain-2 catalytic subunit (Sus scrofa, UniProt P43367); test: m-calpain protease blockers, concentration series – biochemical, fluorogenic peptide substrate, dose response (AID 1420); assay type: functional
T1 sequence (P43367 whole entry): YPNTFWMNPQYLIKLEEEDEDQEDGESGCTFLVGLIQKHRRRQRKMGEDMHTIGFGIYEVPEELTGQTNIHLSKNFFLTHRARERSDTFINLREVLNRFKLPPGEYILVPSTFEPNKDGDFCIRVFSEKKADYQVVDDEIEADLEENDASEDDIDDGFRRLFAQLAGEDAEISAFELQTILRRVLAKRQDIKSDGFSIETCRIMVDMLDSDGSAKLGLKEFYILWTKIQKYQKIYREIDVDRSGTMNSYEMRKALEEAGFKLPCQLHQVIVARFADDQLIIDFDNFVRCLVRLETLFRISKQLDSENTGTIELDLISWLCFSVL

[2] = A cytotoxicity screen of small molecule inhibitors of the PhoP region in Salmonella typhi identified in the primary screen. [Related pubchem assays: 1850, 1864, 1985 ]; assay type: functional
[3] = NIH3T3 cell viability loss – ATP luminescence, mouse fibroblasts, counter-screen, dose response (AID 2010); assay type: functional, cell-based;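 note: cells exposed to compound for about 90 hours before reading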
[4] = viability of HCT116 lacking mutant beta-catenin – cell-based, human colon tumor, dose response (AID 1045); assay type: functional;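 note: HCT116 colon tumor cells with beta catenin knocked out; cells exposed to compound for 60 hours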
[5] = Trypanosoma cruzi growth suppression in host cells – NIH3T3 host cells, beta-gal luminescence, confirmation (AID 2044); assay type: functional, cell-based;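 note: intracellular parasites grown in NIH/3T3 mouse fibroblasts as host cells; luminescent beta-galactosidase reporter signal from transgenic T. cruzi replicating inside host cells; inhibitors lower the luminescence signal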
[6] = viability of PTEN-deleted HCT116 cells – cell-based, HCT116 PTEN knockout, dose response (AID 1047); assay type: functional;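 note: HCT116 colon tumor cells with PTEN knocked out; cells exposed to compound for 60 hours before readout; potency for loss of cell viability measured by luminescence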
[7] = target: T2, Ubiquitin-conjugating enzyme E2 N (Homo sapiens, UniProt P61088); assay type: functional;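 note: Dose-response confirmation in a TR-FRET assay detecting UBC13-driven polyubiquitin chain formation, inhibition measured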
T2 sequence (P61088 whole entry): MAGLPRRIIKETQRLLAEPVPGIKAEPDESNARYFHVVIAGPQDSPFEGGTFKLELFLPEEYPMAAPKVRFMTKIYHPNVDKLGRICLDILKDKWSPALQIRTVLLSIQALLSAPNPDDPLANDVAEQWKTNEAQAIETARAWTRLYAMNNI

cells [8] = test: cells
cells [9] = test: cells; remark: listed apart in the source
[10] = target: T3, Heat shock factor protein 1 (Mus musculus, UniProt P38532); test: enhancement of HSF1-driven luciferase signal – cell-based, NIH3T3, luminescence, dose retest, confirmation (AID 435004); assay type: functional;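 note: stress induced by proteasome inhibitor MG132 added 30 min after compound; luciferase reporter driven by HSF1 response element in NIH3T3 cells; actives raise luminescence as potentiators of the MG132 stress response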
T3 sequence (P38532 whole entry): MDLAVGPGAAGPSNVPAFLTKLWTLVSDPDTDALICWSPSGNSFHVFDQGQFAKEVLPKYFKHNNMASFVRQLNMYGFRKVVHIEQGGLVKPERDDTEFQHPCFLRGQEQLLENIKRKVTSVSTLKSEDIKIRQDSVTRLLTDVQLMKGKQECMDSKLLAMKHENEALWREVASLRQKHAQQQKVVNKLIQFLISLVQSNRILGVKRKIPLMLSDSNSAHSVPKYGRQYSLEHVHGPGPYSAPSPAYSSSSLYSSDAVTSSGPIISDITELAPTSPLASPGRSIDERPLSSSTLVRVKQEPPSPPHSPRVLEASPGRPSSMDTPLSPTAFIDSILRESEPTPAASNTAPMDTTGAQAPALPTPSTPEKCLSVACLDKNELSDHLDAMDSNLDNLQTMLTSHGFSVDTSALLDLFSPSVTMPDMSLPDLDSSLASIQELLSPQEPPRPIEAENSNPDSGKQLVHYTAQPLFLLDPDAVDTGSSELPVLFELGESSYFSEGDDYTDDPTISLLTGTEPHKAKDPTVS

Protein skinhead-1 = target: T4, Protein skinhead-1 (Caenorhabditis elegans, UniProt P34707); assay type: functional
T4 sequence (P34707 whole entry): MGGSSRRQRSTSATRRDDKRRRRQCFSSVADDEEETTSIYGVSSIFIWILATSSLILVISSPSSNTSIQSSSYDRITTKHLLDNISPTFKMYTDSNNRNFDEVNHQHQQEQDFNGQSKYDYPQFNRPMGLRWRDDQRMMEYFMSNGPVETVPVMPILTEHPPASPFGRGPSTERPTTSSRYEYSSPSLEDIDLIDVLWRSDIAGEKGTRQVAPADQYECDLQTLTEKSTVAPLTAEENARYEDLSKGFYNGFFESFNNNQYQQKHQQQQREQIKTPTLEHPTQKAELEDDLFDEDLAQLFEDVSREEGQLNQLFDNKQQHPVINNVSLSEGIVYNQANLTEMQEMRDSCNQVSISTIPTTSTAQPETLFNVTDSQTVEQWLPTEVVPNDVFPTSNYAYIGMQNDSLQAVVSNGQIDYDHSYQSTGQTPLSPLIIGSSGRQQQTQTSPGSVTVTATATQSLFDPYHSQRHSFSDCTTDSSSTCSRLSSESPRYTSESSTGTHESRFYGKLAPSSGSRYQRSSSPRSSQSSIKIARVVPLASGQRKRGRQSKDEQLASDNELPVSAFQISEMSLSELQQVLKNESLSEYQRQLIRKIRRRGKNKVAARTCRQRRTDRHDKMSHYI

[11] = target: T5, Oxysterols receptor LXR-beta (Homo sapiens, UniProt P55055); assay type: functional, cell-based;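 note: agonist activity at LXR measured by a cell-based luminescence readout across a dose range, run as a counterscreen for daf-12 agonists; HEK293 cells with Gal4-LXR fusion and GAL4-driven luciferase reporter; potency for activation of Gal4-LXR reporter so compounds are agonists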
T5 sequence (P55055 whole entry): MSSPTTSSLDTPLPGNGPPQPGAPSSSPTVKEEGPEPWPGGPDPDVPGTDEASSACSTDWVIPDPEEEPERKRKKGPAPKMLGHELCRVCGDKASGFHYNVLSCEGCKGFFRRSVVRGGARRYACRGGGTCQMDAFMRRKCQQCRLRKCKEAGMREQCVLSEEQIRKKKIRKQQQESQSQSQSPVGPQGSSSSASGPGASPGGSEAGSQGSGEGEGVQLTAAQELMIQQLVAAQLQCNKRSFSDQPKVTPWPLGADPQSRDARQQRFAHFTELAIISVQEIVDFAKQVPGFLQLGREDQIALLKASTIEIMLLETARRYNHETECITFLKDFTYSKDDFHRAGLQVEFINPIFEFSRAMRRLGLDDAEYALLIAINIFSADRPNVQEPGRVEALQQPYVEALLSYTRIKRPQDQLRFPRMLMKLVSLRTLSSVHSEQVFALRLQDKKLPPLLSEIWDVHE

[12] = toxicity to human HepG2 hepatoma cells – cell-based, plate reader, dry powder samples, cytotoxicity control, dose response (AID 1159569); assay type: functional;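 note: inhibitor potency with signal falling toward the positive control level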
[13] = Dd2 malaria parasite growth inhibition potency – SYBR Green, dry powder samples, dose response (AID 1159566); assay type: functional, cell-based;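 note: potency for growth inhibition with lower SYBR green DNA signal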
[14] = growth inhibition of yeast DHODH-expressing 3D7 parasites – SYBR Green, dry powder samples, dose response (AID 1159570); assay type: functional, cell-based;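 note: parasite growth measured after 72 hours of compound exposure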
[15] = growth inhibition of PfATP4-mutant resistant parasites – NITD609-resistant line, SYBR Green, dry powder, dose response (AID 1159571); assay type: functional, cell-based;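 note: parasites synchronized at ring stage by sorbitol before testing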

In the case of CC(=O)Nc1ccc(S(=O)(=O)NCC2CCC(C(=O)NCCC3=CCCCC3)CC2)cc1 (stereo not drawn), the IC50 [1] is reported as 9.12 µM (not active).

In the case of O=C(OCc1nnc(-c2ccccc2)o1)C12CC3CC(CC(Br)(C3)C1)C2, the IC50 [1] is reported as 3.14 µM (not active).

For CCNC(=O)Oc1cccnc1O, the EC50 [2] was > 50 µM (active).

In the case of COc1ccc2cc3cc(C(=O)Nc4ccccc4N4CCN(C)CC4)oc3nc2c1, the EC50 [3] is reported as 4.47 µM (active), the EC50 [4] is reported as 2.25 µM (active) and the EC50 [5] is reported as 1.65 µM (active). The EC50 [6] was 1.43 µM (active) and the IC50 [7] was > 20 µM (inactive).

For C=CCSc1nc2sc3c(c2c(=O)n1-c1ccccc1)CCN(C)C3, the EC50 [3] was > 60 µM (not active), the EC50 (cells [8]) was 0.474 µM (active) and the EC50 [5] was < 0.1 µM (active).

For O=C(CSc1nc2ccccc2c2nc3ccccc3n12)NCc1ccco1, the IC50 (cells [9]) was 45.6 µM (active), the EC50 [10] was > 260 µM (inactive) and the IC50 (Protein skinhead-1) was > 100 µM (inactive).

For COc1ccccc1NC(=O)/C=C\C(=O)O, the IC50 [1] was 17.4 µM (not active).

With O=C(CCCN1C(=O)c2cccc3cccc(c23)C1=O)N1CCN(c2ccccn2)CC1 the IC50 [1] was 2.13 µM (not active).

For Cc1ccc(CN2CCN(CC(C)C)C(CCO)C2)s1 (stereo not drawn), the EC50 [11] was > 67.6 µM (inactive) and the EC50 [10] was 98.2 µM (active).

In the case of COc1cccc(NC(=O)N(C)C[C@@H]2Oc3cc(C#Cc4ccccc4)ccc3S(=O)(=O)N([C@@H](C)CO)C[C@@H]2C)c1, the AC50 [12] is reported as > 100 µM (inactive), the AC50 [13] is reported as 1.33 µM (active) and the AC50 [14] is reported as 1.14 µM (active). For the same molecule, the AC50 [15] was 1.35 µM (active).

In the case of N#Cc1ccc(-c2ccc(OCC(=O)NCCCN3CCCC3=O)cc2)cc1, the EC50 [2] is reported as > 50 µM (active).
